{
  "source": "patent US11826326B2",
  "about": "“Benzoic acid or a salt and derivative thereof for use in preventing or treating depression” (EXCELSIOR PHARMATECH LABS, priority 2017, dated 2023)",
  "key": {"[1]": {"test_system": "D-amino acid oxidase (DAAO)", "settings": "cited from earlier work"}, "patients with dementia": {"test_system": "patients with dementia", "settings": "depression in patients with dementia; cited from earlier work"}, "patients with MDD [2]": {"test_system": "patients with MDD", "assay": "17-Item Hamilton rating scale for depression (HAMD-17) in randomized, double-blind, placebo-controlled trial", "format": "in vivo, human", "settings": "for HAMD-17 Difference, Mean ± SD: baseline to week 8, 250-1500 mg/day, n = 20, p=0.011 vs placebo; for HAMD-17 score before treatment: baseline", "experimental": "(§1) It was conducted a randomized, double-blind, placebo-controlled trial in Taiwan. […] At the baseline and at the end of week 2, 4, 6 and 8, the assessments of 17-Item Hamilton rating scale for depression (HAMD-17) (Hamilton 1960), perceived stress scale (PSS), and global assessment of function (GAF) were arranged.\n(§2) This study was a pilot eight weeks trial with the aim of examining sodium benzoate for the treatment of MDD. Patients were evaluated by research psychiatrists after a thorough medical and neurological workup. The structured clinical interview for DSM-IV (SCID) (American Psychiatric Association 1994) was conducted for diagnosis, and eligible patients diagnosed with MDD by DSM-IV (American Psychiatric Association 1994b) were recruited. […] The dosage of study drugs was adjusted according to clinical evaluation.\n(§3) The data analyses were based on the intent-to-treat principle. The last observation carried forward was used to analyze all available data from the entire sample (i.e., cases with complete and incomplete data). A level of 0.05 (two-sided value) for type I errors was adopted for all analyses for statistical significance. Demographic characteristics, baseline and endpoint symptomatology were compared between two groups by t test (or Mann-Whitney U test) for continuous variables and chi-square test (or Fisher's exact test) for categorical variables."}, "patients with MDD [3]": {"test_system": "patients with MDD", "assay": "Global assessment of function (GAF) in randomized, double-blind, placebo-controlled trial", "format": "in vivo, human", "settings": "for GAF Difference, Mean ± SD: baseline to week 8, 250-1500 mg/day, n = 20, table p 0.103 vs placebo", "experimental": "as §1\nas §2, with “Patients” for “This study was a pilot eight weeks trial with the aim of examining sodium benzoate for the treatment of MDD. Patients”\nas §3"}, "patients with MDD [4]": {"test_system": "patients with MDD", "assay": "Perceived stress scale (PSS) in randomized, double-blind, placebo-controlled trial", "format": "in vivo, human", "settings": "for PSS Difference, Mean ± SD: baseline to week 8, 250-1500 mg/day, n = 20, p=0.022 vs placebo", "experimental": "as §1, §2, §3"}, "patients with MDD [5]": {"test_system": "patients with MDD", "assay": "Mini-mental state examination (MMSE) score of single subjects of the treatment group", "format": "in vivo, human", "settings": "for MMSE score before treatment: baseline", "text": "At the same time, the mini-mental state examination (MMSE) score, which is used to evaluate cognitive impairment, has improved from 26 to 30. […] Furthermore, person two has a decrease of HAMD-17 score from 26 to 12, and improved cognitive function as shown by an increased MMSE score from 23 to 26."}, "patients with MDD [6]": {"test_system": "patients with MDD", "assay": "Safety assessment: UKU side-effects rating scale, routine laboratory tests, EKG, dropout", "format": "in vivo, human", "experimental": "In addition, the assessments of systemic side effects were examined biweekly by routine physical and neurological examinations and the Udvalg for Kliniske Undersogelser (UKU) side-effects rating scale (Lingjaerde, Ahlfors et al. 1987). The routine laboratory tests, including complete blood count (CBC), biochemistry, urine analysis and electrocardiogram (EKG), were checked at the baseline and at the end of week 8.\nFurther, clinical assessment of safety was performed every week during the study period by face-to-face or telephone interview. Drop out was determined by research psychiatrists or patients if continuation of the study was regarded obviously more risky than beneficial."}, "[7]": {"settings": "single subject one, after 8 weeks"}, "[8]": {"settings": "single subject three, after treatment"}, "[9]": {"settings": "single subject two, after treatment"}, "[10]": {"settings": "week 0, n = 20, before treatment"}},
  "data": [
    {"smiles": "O=C(O)c1ccccc1", "note": "[Benzoic acid]", "values": [
      {"measurement": "inhibition of DAAO activity", "setting": "[1]", "value": "can inhibit DAAO activity"}
    ]},
    {"smiles": "CN1CCN2c3ncccc3Cc3ccccc3C2C1", "note": "(stereo not drawn) [mirtazapine]", "values": [
      {"measurement": "reduction of depression scores compared with placebo", "setting": "patients with dementia", "value": "did not differ from the placebo group"}
    ]},
    {"smiles": "CN[C@H]1CC[C@@H](c2ccc(Cl)c(Cl)c2)c2ccccc21", "note": "[sertraline]", "values": [
      {"measurement": "reduction of depression scores compared with placebo", "setting": "patients with dementia", "value": "did not differ from the placebo group"}
    ]},
    {"smiles": "O=C([O-])c1ccccc1.[Na+]", "note": "[sodium benzoate]", "values": [
      {"measurement": "improvement in HAMD-17 scores compared with placebo therapy", "setting": "patients with MDD [2]; 8 weeks", "value": "greater improvement"},
      {"measurement": "HAMD-17 Endpoint, Mean ± SD", "setting": "patients with MDD [2]; after 8 weeks, 250-1500 mg/day, n = 20, LOCF", "value": "19.3 ± 6.4"},
      {"measurement": "HAMD-17 Difference, Mean ± SD", "setting": "patients with MDD [2]", "value": "7.5±4.9"},
      {"measurement": "HAMD-17 Difference, Mean ± SD", "setting": "patients with MDD [2]; listed as Benzoate", "value": "−7.5 ± 4.9"},
      {"measurement": "HAMD-17 score decrease", "setting": "patients with MDD [2]; single subject one, 8 weeks", "value": 20},
      {"measurement": "HAMD-17 score after treatment", "setting": "patients with MDD [2]; [7]", "value": 4},
      {"measurement": "HAMD-17 score before treatment", "setting": "patients with MDD [2]; single subject one", "value": 24},
      {"measurement": "HAMD-17 score decrease", "setting": "patients with MDD [2]; single subject three", "value": 16},
      {"measurement": "HAMD-17 score after treatment", "setting": "patients with MDD [2]; [8]", "value": 15},
      {"measurement": "HAMD-17 score before treatment", "setting": "patients with MDD [2]; single subject three", "value": 31},
      {"measurement": "HAMD-17 score after treatment", "setting": "patients with MDD [2]; [9]", "value": 12},
      {"measurement": "HAMD-17 score before treatment", "setting": "patients with MDD [2]; single subject two", "value": 26},
      {"measurement": "HAMD-17 Baseline, Mean ± SD", "setting": "patients with MDD [2]; [10]", "value": "26.7 ± 5.2"},
      {"measurement": "improvement in GAF scores compared with placebo therapy", "setting": "patients with MDD [3]; 8 weeks", "value": "slightly greater improvement"},
      {"measurement": "GAF Difference, Mean ± SD", "setting": "patients with MDD [3]", "value": "5.5±6.0"},
      {"measurement": "GAF Difference, Mean ± SD", "setting": "patients with MDD [3]; listed as Benzoate", "value": "5.5 ± 6.0"},
      {"measurement": "GAF Baseline, Mean ± SD", "setting": "patients with MDD [3]; [10]", "value": "57.4 ± 8.4"},
      {"measurement": "improvement in PSS scores compared with placebo therapy", "setting": "patients with MDD [4]; 8 weeks", "value": "greater improvement"},
      {"measurement": "PSS Endpoint, Mean ± SD", "setting": "patients with MDD [4]; after 8 weeks, 250-1500 mg/day, n = 20, LOCF, p 0.019 vs placebo", "value": "28.9 ± 10.8"},
      {"measurement": "PSS Difference, Mean ± SD", "setting": "patients with MDD [4]", "value": "6.4±9.9"},
      {"measurement": "PSS Difference, Mean ± SD", "setting": "patients with MDD [4]; listed as Benzoate", "value": "−6.4 ± 9.9"},
      {"measurement": "PSS Baseline, Mean ± SD", "setting": "patients with MDD [4]; [10]", "value": "35.2 ± 5.8"},
      {"measurement": "MMSE score after treatment", "setting": "patients with MDD [5]; [7]", "value": 30},
      {"measurement": "MMSE score before treatment", "setting": "patients with MDD [5]; single subject one", "value": 26},
      {"measurement": "MMSE score after treatment", "setting": "patients with MDD [5]; [8]", "value": 25},
      {"measurement": "MMSE score before treatment", "setting": "patients with MDD [5]; single subject three", "value": 23},
      {"measurement": "MMSE score after treatment", "setting": "patients with MDD [5]; [9]", "value": 26},
      {"measurement": "MMSE score before treatment", "setting": "patients with MDD [5]; single subject two", "value": 23},
      {"measurement": "Treatment-emergent adverse events by UKU side-effects rating scale", "setting": "patients with MDD [6]; 8-week treatment", "value": "mild and not warranting medical treatment"},
      {"measurement": "dropout due to side effects", "setting": "patients with MDD [6]; 8-week treatment", "value": "No dropout was due to side effects"},
      {"measurement": "values of routine CBC, biochemistry and EKG tests after treatment", "setting": "patients with MDD [6]; baseline and end of week 8", "value": "all within the normal ranges without a significant change"},
      {"measurement": "commonly seen side effects of anti-depression medication (nausea, nervousness, restlessness, irregular heart rate, sweating, constipation)", "setting": "patients with MDD [6]; subjects from the treatment group", "value": "not observed"},
      {"measurement": "inhibition of DAAO activity", "setting": "[1]", "value": "can inhibit DAAO activity"}
    ]}
  ]
}
